Test results reported in ChEMBL document CHEMBL1127177, “(E) and (Z)5-fluoro olefin carbocyclic nucleosides: effect of olefin geometry on inhibition of s-adenosyl-l-homocysteine hydrolase” (Bioorg Med Chem Lett, 1993).

How the values were obtained:
[1] = target: T1, Adenosylhomocysteinase (Rattus norvegicus, UniProt P10760); assay: Tested for binding affinity of compound against S-adenosyl-L-homocysteine hydrolase
T1 sequence (P10760 whole entry): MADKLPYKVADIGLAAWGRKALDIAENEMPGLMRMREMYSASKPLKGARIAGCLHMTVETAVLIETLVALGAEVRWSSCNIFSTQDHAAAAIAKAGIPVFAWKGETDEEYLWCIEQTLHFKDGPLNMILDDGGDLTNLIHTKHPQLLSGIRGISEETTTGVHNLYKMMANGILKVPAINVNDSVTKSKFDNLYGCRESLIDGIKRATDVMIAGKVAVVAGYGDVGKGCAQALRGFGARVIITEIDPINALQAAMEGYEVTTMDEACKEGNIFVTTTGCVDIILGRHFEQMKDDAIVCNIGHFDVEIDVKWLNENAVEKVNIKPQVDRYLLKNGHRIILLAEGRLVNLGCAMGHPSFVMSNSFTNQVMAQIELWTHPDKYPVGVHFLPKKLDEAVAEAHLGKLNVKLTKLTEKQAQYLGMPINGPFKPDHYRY

[2] = test system: T-cell; assay: Inhibition of T cell proliferation was determined using murine splenic mononuclear cells; type: functional, cell-based; conditions: Mus musculus
[3] = target: T2, Adenosylhomocysteinase (Rattus norvegicus) (UniProt P10760)
T2 sequence (whole entry): T1 sequence (P10760 whole entry)
Description: Tested for rate constant for inactivation of S-adenosyl-L-homocysteine hydrolase from rat

[4] = test system: T-cell; assay: Tested for inhibition of T cell proliferation; type: functional, cell-based; conditions: Mus musculus

Structure (SMILES) | Ki [1] [µM] | IC50 [2] [µM] | K inact [3] [min⁻¹] | IC50 [4] [µM]
Nc1ncnc2c1ncn2C1C/C(=C/F)C(O)C1O (stereo not given) | 1.1 | 6.7 |  | 
Nc1ncnc2c1ncn2C1C/C(=C\F)C(O)C1O (stereo not given) | 6.9 |  | 0.18 | 0.8
